Experimental data taken from patent US6878722B2, “Substituted cycloalkyl P1′ hepatitis C virus inhibitors” (Bristol-Myers Squibb Company, priority 2002, dated 2005).
Read-outs that look alike come from different tables or passages of the source.

Assays:
[1] = target: T1, HCV NS3/4A protease complex (BMS strain, genotype 1a) (Hepatitis C virus genotype 1a, UniProt P27958, C1454S); test: Recombinant HCV NS3/4A protease complex FRET peptide assay, BMS strain; format: biochemical; details: IC50 range, NS3/4A BMS Strain
T1 construct: DNA encoding the recombinant HCV NS3/4A protease complex (amino acids 1027 to 1711) for these strains; inferred from the pET21b vector and Ni-NTA purification; made in house; host or cells: Escherichia coli BL21 (DE3), pET21b
Method in brief: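 Recombinant NS3/4A complex (aa 1027–1711) with C-terminal three-lysine tail, C1711G and C1454S, expressed in E. coli BL21(DE3) and purified by Ni-NTA then Superdex-S200. Inhibition of the complex from each strain measured in vitro by FRET peptide cleavage.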

[2] = tested on: HCV replicon in Huh7 cells; test: HCV replicon cell-based assay (FRET); details: Hepatitis C virus
Method in brief: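 Huh7 cells stably carrying a genotype 1b HCV replicon (IRES-neo-EMCV-IRES-NS3-NS5B) were treated with compound for 4 days at 37 °C in 0.5% DMSO final. Lysates containing 10 μM FRET peptide RET S1 were read kinetically at 340/490 nm to give NS3 protease activity, from which EC50 was derived.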

[3] = Huh-7, HCV replicon, read-out: EC50 range

T1 sequence (P27958 1658-1714, looked up, stated change not applied): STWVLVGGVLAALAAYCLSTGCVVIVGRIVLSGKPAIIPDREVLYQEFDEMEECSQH
T1 sequence (P27958 1027-1657, looked up, stated change not applied): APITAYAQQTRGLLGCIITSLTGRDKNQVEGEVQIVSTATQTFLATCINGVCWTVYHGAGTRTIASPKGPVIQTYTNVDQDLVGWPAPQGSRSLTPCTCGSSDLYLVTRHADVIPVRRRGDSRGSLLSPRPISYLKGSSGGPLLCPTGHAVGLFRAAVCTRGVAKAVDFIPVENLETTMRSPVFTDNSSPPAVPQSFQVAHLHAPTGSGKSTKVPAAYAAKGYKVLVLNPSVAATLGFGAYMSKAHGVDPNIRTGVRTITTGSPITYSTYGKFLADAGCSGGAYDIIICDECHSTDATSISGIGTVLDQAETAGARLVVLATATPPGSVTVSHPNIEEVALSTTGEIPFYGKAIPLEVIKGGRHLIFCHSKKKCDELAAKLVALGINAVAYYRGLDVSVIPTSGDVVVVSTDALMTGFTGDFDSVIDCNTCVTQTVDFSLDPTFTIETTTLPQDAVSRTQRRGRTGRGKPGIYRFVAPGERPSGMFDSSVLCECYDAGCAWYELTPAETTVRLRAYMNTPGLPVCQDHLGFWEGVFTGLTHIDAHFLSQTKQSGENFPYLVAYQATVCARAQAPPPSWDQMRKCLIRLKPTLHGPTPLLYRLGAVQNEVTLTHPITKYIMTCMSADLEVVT

Row | SMILES | IC50 [1] [nM] | EC50 [2, 3] [nM] | EC50 ([2]; Huh-7, read-out: EC50 range) [nM]
1 | C=C[C@@H]1C[C@]1(NC(=O)[C@@H]1C[C@@H](Oc2cc(-c3ccccc3)nc3cc(OC)ccc23)CN1C(=O)[C@@H](NC(=O)OC1CCOCC1)C(C)(C)C)C(=O)NS(=O)(=O)C1(Cc2ccccc2)CC1 [Compound 56, {1-[2-[1-(1-Benzyl-cyclopropanesulfonylaminocarbonyl)-2-vinyl-cyclopropylcarbamoyl]-4-(7-methoxy-2-phenyl-quinolin-4-yloxy)-pyrrolidine-1-carbonyl]-2,2-dimethyl-propyl}-carbamic acid tetrahydro-pyran-4-yl Ester] | < 50 | 50 to 500 | –
2 | C=C[C@@H]1C[C@]1(NC(=O)[C@@H]1C[C@@H](Oc2cc(-c3ccccc3)nc3cc(OC)ccc23)CN1C(=O)[C@@H](NC(=O)O[C@H]1CCOC1)C(C)(C)C)C(=O)NS(=O)(=O)C1(Cc2ccccc2)CC1 [Compound 57, {1-[2-[1-(1-Benzyl-cyclopropanesulfonylaminocarbonyl)-2-vinyl-cyclopropylcarbamoyl]-4-(7-methoxy-2-phenyl-quinolin-4-yloxy)-pyrrolidine-1-carbonyl]-2,2-dimethyl-propyl}-carbamic acid tetrahydro-furan-3-yl ester] | < 50 | 50 to 500 | –
3 | C=C[C@@H]1C[C@]1(NC(=O)[C@@H]1C[C@@H](Oc2cc(-c3ccccc3)nc3cc(OC)ccc23)CN1C(=O)[C@@H](NC(=O)CC1CC1)C(C)(C)C)C(=O)NS(=O)(=O)C1(Cc2ccccc2)CC1 [Compound 58, 1-[2-(2-Cyclopropyl-acetylamino)-3,3-dimethyl-butyryl]-4-(7-methoxy-2-phenyl-quinolin-4-yloxy)-pyrrolidine-2-carboxylic acid [1-(1-benzyl-cyclopropanesulfonylaminocarbonyl)-2-vinyl-cyclopropyl]-amide] | < 50 | 50 to 500 | –
4 | C=C[C@@H]1C[C@]1(NC(=O)[C@@H]1C[C@@H](Oc2cc(-c3ccccc3)nc3cc(OC)ccc23)CN1C(=O)[C@@H](NC(=O)CC1CCOCC1)C(C)(C)C)C(=O)NS(=O)(=O)C1(Cc2ccccc2)CC1 [Compound 59, 1-[3,3-Dimethyl-2-(2-tetrahydro-pyran-4-yl-acetylamino)-butyryl]-4-(7-methoxy-2-phenyl-quinolin-4-yloxy)-pyrrolidine-2-carboxylic acid [1-(1-benzyl-cyclopropanesulfonylaminocarbonyl)-2-vinyl-cyclopropyl]-amide] | < 50 | 50 to 500 | –
5 | C=C[C@@H]1C[C@]1(NC(=O)[C@@H]1C[C@@H](Oc2cc(-c3ccccc3)nc3cc(OC)ccc23)CN1C(=O)[C@@H](NC(=O)C1CCOCC1)C(C)(C)C)C(=O)NS(=O)(=O)C1(Cc2ccccc2)CC1 [Compound 60, 1-{3,3-Dimethyl-2-[(tetrahydro-pyran-4-carbonyl)-amino]-butyryl}-4-(7-methoxy-2-phenyl-quinolin-4-yloxy)-pyrrolidine-2-carboxylic acid [1-(1-benzyl-cyclopropanesulfonylaminocarbonyl)-2-vinyl-cyclopropyl]-amide] | < 50 | 500 to 5000 | –
6 | C=C[C@@H]1C[C@]1(NC(=O)[C@@H]1C[C@@H](Oc2cc(-c3ccccc3)nc3cc(OC)ccc23)CN1C(=O)[C@@H](NC(=O)NCC)C(C)(C)C)C(=O)NS(=O)(=O)C1(Cc2ccccc2)CC1 [Compound 61, 1-[2-(3-Ethyl-ureido)-3,3-dimethyl-butyryl]-4-(7-methoxy-2-phenyl-quinolin-4-yloxy)-pyrrolidine-2-carboxylic acid [1-(1-benzyl-cyclopropanesulfonylaminocarbonyl)-2-vinyl-cyclopropyl]-amide] | < 50 | 50 to 500 | –
7 | C=C[C@@H]1C[C@]1(NC(=O)[C@@H]1C[C@@H](Oc2cc(-c3ccccc3)nc3cc(OC)ccc23)CN1C(=O)[C@@H](NC(=O)NC(C)(C)C)C(C)(C)C)C(=O)NS(=O)(=O)C1(Cc2ccccc2)CC1 [Compound 62, 1-[2-(3-tert-Butyl-ureido)-3,3-dimethyl-butyryl]-4-(7-methoxy-2-phenyl-quinolin-4-yloxy)-pyrrolidine-2-carboxylic acid [1-(1-benzylcyclopropanesulfonylaminocarbonyl)-2-vinyl-cyclopropyl]-amide] | < 50 | 50 to 500 | –
8 | C=C[C@@H]1C[C@]1(NC(=O)[C@@H]1C[C@@H](Oc2ccnc3cc(Cl)ccc23)CN1C(=O)[C@@H](NC(=O)OC1CCCC1)C(C)(C)C)C(=O)NS(=O)(=O)C1(C)CC1 [Compound 63, (1-{4-(7-Chloro-quinolin-4-yloxy)-2-[1-(1-methyl-cyclopropanesulfonylaminocarbonyl)-2-vinyl-cyclopropylcarbamoyl]-pyrrolidine-1-carbonyl}-2,2-dimethyl-propyl)-carbamic acid cyclopentyl ester] | < 50 | < 50 | –
9 | C=C[C@@H]1C[C@]1(NC(=O)[C@@H]1C[C@@H](Oc2ccnc3cc(Cl)ccc23)CN1C(=O)[C@@H](NC(=O)OC1CCCC1)C(C)(C)C)C(=O)NS(=O)(=O)C1(CCC)CC1 [Compound 64, (1-{4-(7-Chloro-quinolin-4-yloxy)-2-[1-(1-propyl-cyclopropanesulfonylaminocarbonyl)-2-vinyl-cyclopropylcarbamoyl]-pyrrolidine-1-carbonyl}-2,2-dimethyl-propyl)-carbamic acid cyclopentyl ester] | < 50 | 50 to 500 | –
10 | C=C[C@@H]1C[C@]1(NC(=O)[C@@H]1C[C@@H](Oc2ccnc3cc(Cl)ccc23)CN1C(=O)[C@@H](NC(=O)OC1CCCC1)C(C)(C)C)C(=O)NS(=O)(=O)C1(CCCC)CC1 [Compound 65, {1-[2-[1-(1-Butyl-cyclopropanesulfonylaminocarbonyl)-2-vinyl-cyclopropylcarbamoyl]-4-(7-chloro-quinolin-4-yloxy)-pyrrolidine-1-carbonyl]-2,2-dimethyl-propyl}-carbamic acid cyclopentyl ester] | < 50 | 50 to 500 | –
11 | C=C[C@@H]1C[C@]1(NC(=O)[C@@H]1C[C@@H](Oc2ccnc3cc(Cl)ccc23)CN1C(=O)[C@@H](NC(=O)OC1CCCC1)C(C)(C)C)C(=O)NS(=O)(=O)C1(CC2CC2)CC1 [Compound 66, (1-{4-(7-Chloro-quinolin-4-yloxy)-2-[1-(1-cyclopropylmethyl-cyclopropanesulfonylaminocarbonyl)-2-vinyl-cyclopropylcarbamoyl]-pyrrolidine-1-carbonyl}-2,2-dimethyl-propyl)-carbamic acid cyclopentyl ester] | < 50 | 50 to 500 | –
12 | C=CCC1(S(=O)(=O)NC(=O)[C@@]2(NC(=O)[C@@H]3C[C@@H](Oc4ccnc5cc(Cl)ccc45)CN3C(=O)[C@@H](NC(=O)OC3CCCC3)C(C)(C)C)C[C@H]2C=C)CC1 [Compound 67, {1-[2-[1-(1-Allyl-cyclopropanesulfonylaminocarbonyl)-2-vinyl-cyclopropylcarbamoyl]-4-(7-chloro-quinolin-4-yloxy)-pyrrolidine-1-carbonyl]-2,2-dimethyl-propyl}-carbamic acid cyclopentyl ester] | 50 to 500 | 50 to 500 | –
13 | C=C[C@@H]1C[C@]1(NC(=O)[C@@H]1C[C@@H](Oc2cc(C3CC3)nc3cc(OC)ccc23)CN1C(=O)[C@@H](NC(=O)OC(C)(C)C)C(C)(C)C)C(=O)NS(=O)(=O)C1(Cc2ccccc2)CC1 [Compound 68, BOCNH—P3(L-t-BuGly)-P2[(4R)-(2-cyclopropyl-7-methoxyquinoline-4-oxo)-S-proline]-P1(1R,2S Vinyl Acca)-CONHSO2(1-benzylclopropan-1-yl)] | < 50 | – | 50 to 500
14 | C=C[C@@H]1C[C@]1(NC(=O)[C@@H]1C[C@@H](Oc2cc(C3CC3)nc3cc(OC)ccc23)CN1C(=O)[C@@H](NC(=O)OC(C)(C)C)C(C)(C)C)C(=O)NS(=O)(=O)C1(CC#CCC)CC1 [Compound 69, (1-{4-(2-Cyclopropyl-7-methoxy-quinolin-4-yloxy)-2-[1-(1-pent-2-ynyl-cyclopropanesulfonylaminocarbonyl)-2-vinyl-cyclopropylcarbamoyl]-pyrrolidine-1-carbonyl}-2,2-dimethyl-propyl)-carbamic acid tert-butyl ester] | < 50 | < 50 | –
15 | C=C[C@@H]1C[C@]1(NC(=O)[C@@H]1C[C@@H](Oc2cc(C3CC3)nc3cc(OC)ccc23)CN1C(=O)[C@@H](NC(=O)OC(C)(C)C)C(C)(C)C)C(=O)NS(=O)(=O)C1(CC2CC2)CC1 [Compound 70, (1-{4-(2-Cyclopropyl-7-methoxy-quinolin-4-yloxy)-2-[1-(1-cyclopropylmethyl-cyclopropanesulfonylaminocarbonyl)-2-vinyl-cyclopropylcarbamoyl]-pyrrolidine-1-carbonyl}-2,2-dimethyl-propyl)-carbamic acid tert-butyl ester] | < 50 | < 50 | –
16 | COc1ccc2c(O[C@@H]3C[C@@H](C(=O)NC4(C(=O)NS(=O)(=O)C5([Si](C)(C)C)CC5)CC4)N(C(=O)[C@@H](NC(=O)OC(C)(C)C)C(C)(C)C)C3)cc(-c3ccccc3)nc2c1 [Compound 71] | 50 to 500 | 500 to 5000 | –
17 | COc1ccc2c(O[C@@H]3C[C@@H](C(=O)NC4(C(=O)NS(=O)(=O)C5(C(=O)Nc6ccccc6)CC5)CC4)N(C(=O)[C@@H](NC(=O)OC(C)(C)C)C(C)(C)C)C3)cc(-c3ccccc3)nc2c1 [Compound 72, (1-{4-(7-Methoxy-2-phenyl-quinolin-4-yloxy)-2-[1-(1-phenylcarbamoyl-cyclopropanesulfonylaminocarbonyl)-cyclopropylcarbamoyl]-pyrrolidine-1-carbonyl}-2,2-dimethyl-propyl)-carbamic acid tert-butyl ester] | 500 to 5000 | 5000 to 50000 | –
